We go through two molecules from US10159738B2, “Organic-inorganic hybrid solid having a modified outer surface” (CENTRE NATIONAL DE LA RECHERCHE SCIENTIFIQUE-CNRS, priority 2012, dated 2018).

The conditions of data set [1]: COOH groups; cited from earlier work.
The subject of a further data set is J774 cell line. The experiment in a line: Penetration in the J774 cell line (CLSM, ATP-BODIPY label). The data set is classed as cell-based, murine. Particulars: 50 μg/ml, 15 min to 24 h. Here is the method: For this analysis the MIL-100s were labeled with a fluorophore: adenosine 5′-triphosphate BODIPY-FL (ATP-BODIPY, adenosine 5′-triphosphate, BODIPY® FL, Invitrogen). 1.25 mg of MIL-100 was incubated with 500 μL of an aqueous solution of ATP-BODIPY 10 nmol/ml, for 1 h, with stirring in the dark at room temperature. At the end of incubation, the nanoparticles were recovered by centrifugation at 5600×g for 10 min, and the supernatant was analyzed by spectrofluorimetry in order to quantify the level of absorption of the fluorophore. The nanoparticles were then incubated in 500 μl of water (unmodified sample) or of an aqueous solution of βCDP 1.25 mg/ml, for 1 h with stirring, at room temperature, in the dark. At the end of incubation, the nanoparticles were recovered by centrifugation at 5600×g for 10 min and resuspended in RMPI 10% FBS (fetal bovine serum) to a final concentration of 50 μg/ml. The cells of the J774 line had been cultured beforehand in 24-well plates (5×10^4 cells per well) on a sterile glass cover slip.
After 24 h of incubation in a humidified incubator at 37° C., the culture medium was replaced with 1 ml of the solutions of nanoparticles loaded with ATP-BODIPY (unmodified or surface-modified), or with free ATP-BODIPY. After various incubation times (15 min, 1 h, 4 h, 24 h), the culture medium was aspirated and the cells were fixed.

As to `O=C(O)c1cc(C(=O)O)cc(C(=O)O)c1` [trimesic acid, 1,3,5-benzenetricarboxylic acid], the pKa in data set [1] is 3.4.
Regarding “adenosine 5′-triphosphate, BODIPY® FL [ATP-BODIPY]”, the “internalization in the cells” value in the data set with J774 cell line is “no fluorescence was observed in the cells”.
